# Measurements: patent publication EP4497440A1, “USE OF 7-TRIFLUOROMETHYL-7ALPHA,25-DIHYDROXYCHOLESTEROL IN THE TREATMENT AND MODULATION OF AUTOIMMUNE AND INFLAMMATORY DISEASES OF THE NERVOUS SYSTEM AND NEURODEGENERATIVE DISEASES” (Gdanski Uniwersytet Medyczny, priority 2023, dated 2025)
# Entries after “also recorded” stand apart in the source; their conditions may differ.
# Tests used:
# [1] = tested on: mouse organotypic cerebellar slices; experiment: Remyelination of organotypic cerebellar slices after LPC demyelination (Mbp mRNA by quantitative PCR); format: cell-based; conditions: LPC 0.4 mg/ml, then treatment in serum-free culture medium for 14-16 days; barbadin 16 µM, 7α,25OHC 0.1 µM, NIBR189 10 µM; concentration of CF3-7α,25OHC not given; vs untreated LPC slices
# Description: (§1) Organotypic cerebellar slices were sampled from ten-day old mice and then grown in an incubator for 14 days. After 14 days the myelin was chemically removed with LPC (0.4 mg/ml). Following the removal of the myelin sheaths, the slices were treated with: • 1. the control group: regular culture medium, without LPC • 2. LPC, then on serum-free culture medium for 14-16 days • 3. LPC followed by barbadin 16 µM in serum-free culture medium for 14-16 days • 4. LPC followed by 7α,25OHC 0.1 µM in serum-free culture medium for 14-16 days • 5. LPC followed by NIBR189 10 µM in serum-free culture medium for 14-16 days • 6. LPC followed by barbadin 16 µM + 7α,25OHC 0.1 µM in serum-free culture medium for 14-16 days
# Once the experiment was completed (remyelination for 14-16 days) the slices were collected and MBP mRNA levels were measured by the PCR quantitative method. In the mouse organotypic cerebellar slices in which myelin sheaths were chemically removed with lysophosphatidylcholine (LPC) spontaneous myelin regeneration took place except for the slices treated with a selective EBI2 receptor antagonist (NIBR189). The results once again reveal key significance of EBI2 intracellular signalling for myelin regeneration. […] Barbadin, which inhibits internalisation of the EBI2 receptor, is necessary to achieve the therapeutic effect (faster remyelination) in the case of non-modified oxysterol (Fig 1 and Fig 2a).
# Ebi2 receptor = experiment: Ebi2 mRNA level in organotypic cerebellar slices; format: cell-based, mouse; conditions: slices first treated with LPC and then with 7α,25OHC
# Description: as §1
# (§2) Measurement of the mRNA level of the Ebi2 receptor and of the enzymes synthesizing (Ch25h, Cyp7b1) and degrading (Hsd3b7) the natural ligand 7α,25OHC in organotypic cerebellar slices treated with non-modified oxysterol 7α,25OHC (Fig 5) (tissue and treatments as in Fig 1 and Fig 2a) and in cerebella of the mice subject to the cuprizone model, treated with modified oxysterol CF3-7α,25OHC (Fig 6). LPC treatment modulates enzymes which synthesise and degrade the natural oxysterol 7α,25OHC.
# Ch25h = experiment: mRNA level of oxysterol-synthesizing enzyme in organotypic cerebellar slices; format: cell-based, mouse; conditions: slices first treated with LPC and then with 7α,25OHC
# Description: as §1, §2
# [2] = mice, subcutaneous or intraperitoneal injection, elimination from blood; cited from earlier work
# white blood cells = experiment: Cuprizone model: blood morphology (white blood cell counts); format: in vivo, mice; conditions: after 14 days of treatment in the cuprizone model; CF3-7α,25OHC 20 mg/kg s.c., barbadin 0.3 mg/kg i.p.; compared to vehicle group #3
# Description: C (Fig 7) or #3 (Fig 8 and 9) vehicle control group - the mice were fed with chow containing cuprizone for 9 weeks, and then with regular chow without cuprizone for another 2 weeks. Over the 2 weeks on regular chow the mice in the vehicle control group were first injected vehicle #1: DMSO (intraperitoneal injection), 150 µl once a day, and then vehicle #2: canola oil, subcutaneously, 150 µl once a day.
# #4 (Fig 8 and 9) barbadin control group - the mice were fed with chow containing cuprizone for 9 weeks, and then with regular chow without cuprizone for another 2 weeks. Over the 2 weeks on regular chow the mice in the group were injected barbadin 0.3 mg/kg, intraperitoneally, 150 µl once a day, and then vehicle #2: canola oil, subcutaneously, 150 µl once a day.
# E (Fig 7) or #5 experimental group with oxysterol CF3-7α,25OHC - the mice were fed with chow containing cuprizone for 9 weeks, and then with regular chow without cuprizone for another 2 weeks. Over the 2 weeks on regular chow the mice in the group were injected vehicle #1: DMSO, intraperitoneally, 150 µl once a day, and CF3-7α,25OHC, dose: 20 mg/kg, subcutaneously, 150 µl once a day.
# #6 (Fig 8 and 9) experimental group with barbadin + oxysterol CF3-7α,25OHC - the mice were fed with chow containing cuprizone for 9 weeks, and then with regular chow without cuprizone for another 2 weeks. Over the 2 weeks on regular chow the mice in the group were injected barbadin, 0.3 mg/kg, intraperitoneally, 150 µl once a day, and then one hour following the barbadin injection they were injected CF3-7α,25OHC, dose: 20 mg/kg, subcutaneously, 150 µl once a day.
# The blood from the heart was sampled after the mice had been euthanised, and blood morphology test was performed using a standard diagnostic analyser. […] The lymphocyte count in peripheral blood of the mice which had been injected with CF3-7α,25OHC was lower by 50% compared to the control group of mice injected with vehicles (gr. #3 or C). The specific action of CF3-7α,25OHC leading to reduction of the lymphocyte count in blood finds confirmation in the results obtained for the mice of groups #4 (or D) and #6 (or F). Compared to the control group, the lymphocyte count in blood in the group of mice injected with barbadin (#4 or D) was lower only by 21%, and in the group of mice injected with barbadin + CF3-7α,25OHC by 7%. Following interaction with CF3-7α,25OHC, barbadin blocks internalisation of the EBI2 receptor from the cell membrane. The absence of any significant effect related to the treatment with barbadin or barbadin + CF3-7α,25OHC indicates a specific action of CF3-7α,25OHC on the EBI2 receptor and the consequential effects of that action, namely reduction of the count of circulating lymphocytes in blood. Moreover, the number of monocytes in group #5 (or E: mice treated with CF3-7α,25OHC) was lower by as much as 66% and the total leukocyte count (lymphocytes and monocytes included) was also substantially lower (by 51%), though only in the group of mice injected with CF3-7α,25OHC. In our subsequent in vivo tests (short-term pharmacology) we confirmed the action of CF3-7α,25OHC. In that test, too, it reduced the count of white blood cells. CF3-7α,25OHC reduces the lymphocyte count as early as following the 4 mg/kg dose and the effect lasts for 24 hours following administration.
# [3] = tested on: pro-inflammatory cytokine IL1β; experiment: Cuprizone model: IL1β mRNA in cerebellum lysates by PCR; conditions: cerebellum lysates, cuprizone model; versus the group treated solely with vehicles
# Description: Identifying the mRNA levels of pro-inflammatory cytokine IL1β in mouse cerebellum lysates (Fig 11).
level of Ch25h (Ch25h),SMILES,remyelination (Mbp expression) [1],Ebi2 expression (Ebi2 receptor),half-life [2],drop in lymphocytes (lymphocyte count in peripheral blood lower by) (white blood cells) [%],mRNA level of IL1β went up by [3] [%]
reduces the level of Ch25h,"C[C@H](CCCC(C)(C)O)[C@H]1CC[C@H]2[C@@H]3[C@H](O)C=C4C[C@@H](O)CC[C@]4(C)[C@H]3CC[C@]12C [7α,25OHC]",do not remyelinate quicker than ones not subject to any treatment; also recorded: do not remyelinate faster than the untreated slices,reduces the expression level of receptor EBI2; also recorded: does not increase its expression; also recorded: does not increase Ebi2 expression,ca. 30 minutes,–,–
–,"Nn1cnc2scc(-c3ccc(Cc4ccccc4)cc3)c2c1=O [barbadin, reference compound]",–,–,–,21,2
–,"COc1ccc(C(=O)N2CCN(C(=O)/C=C/c3ccc(Br)cc3)CC2)cc1 [NIBR189, (2E)-3-(4-bromophenyl)-1-(4-(4-methoxybenzyoil)-1-piperazine)-2-propen-1-on]",do not remyelinate,–,–,–,–
